Test results: paper PMC5218480 (PLoS ONE, 2017)

Test system: MV-4-11 cells
Assay: Gene expression microarray analysis (Affymetrix PrimeView) and GSEA
Format: cell-based, human
Parameters: RFU PODN (11730768_x_at) / Fold change /veh PODN (11730768_x_at) / RFU LINC00158 (11744669_a_at) / Fold change /veh LINC00158 (11744669_a_at) / RFU DUSP10 (11751237_a_at) / Fold change /veh DUSP10 (11751237_a_at) / RFU ID3 (11757404_x_at) / Fold change /veh ID3 (11757404_x_at) / RFU PLEKHG5 (11737974_s_at) / Fold change /veh PLEKHG5 (11737974_s_at) / RFU LRRC4B (11730491_at) / Fold change /veh LRRC4B (11730491_at) / RFU GIMAP4 (11747438_a_at) / Fold change /veh GIMAP4 (11747438_a_at) / RFU KRT8 (11758183_x_at) / Fold change /veh KRT8 (11758183_x_at) / RFU CNN1 (11734310_a_at) / Fold change /veh CNN1 (11734310_a_at) / RFU VPS37D (11726825_at) / Fold change /veh VPS37D (11726825_at) / RFU C10orf10 (11716522_x_at) / Fold change /veh C10orf10 (11716522_x_at) / RFU KIR2DL2 /// KIR2DL4 /// KIR2DL5A /// KIR2DL5B /// KIR2DS1 /// KIR2DS2 /// KIR2DS3 /// KIR2DS4 /// KIR3DL3 /// KIR3DL3 /// KIR3DS1 (11738374_at) / Fold change /veh KIR2DL2 /// KIR2DL4 /// KIR2DL5A /// KIR2DL5B /// KIR2DS1 /// KIR2DS2 /// KIR2DS3 /// KIR2DS4 /// KIR3DL3 /// KIR3DL3 /// KIR3DS1 (11738374_at) / RFU C1QL1 (11718748_at) / Fold change /veh C1QL1 (11718748_at) / RFU TMPRSS4 (11747572_a_at) / Fold change /veh TMPRSS4 (11747572_a_at) / RFU HAMP (11756126_x_at) / Fold change /veh HAMP (11756126_x_at) / RFU RNFT2 (11725882_a_at) / Fold change /veh RNFT2 (11725882_a_at) / RFU NR4A2 (11747474_a_at) / Fold change /veh NR4A2 (11747474_a_at) / RFU ABCC12 (11746883_a_at) / Fold change /veh ABCC12 (11746883_a_at) / RFU TMEM136 (11760407_x_at) / Fold change /veh TMEM136 (11760407_x_at) / RFU CLDN22 /// WWC2 (11732394_at) / Fold change /veh CLDN22 /// WWC2 (11732394_at) / RFU HLA-DPB1 (11760878_x_at) / Fold change /veh HLA-DPB1 (11760878_x_at) / RFU SPINT1 (11716480_a_at) / Fold change /veh SPINT1 (11716480_a_at) / RFU GAP43 (11754022_s_at) / Fold change /veh GAP43 (11754022_s_at) / RFU A4GNT (11735810_at) / Fold change /veh A4GNT (11735810_at) / RFU PRB3 (11715151_x_at) / Fold change /veh PRB3 (11715151_x_at) / RFU TUBB4B (11761932_at) / Fold change /veh TUBB4B (11761932_at) / RFU CAPN14 (11732068_a_at) / Fold change /veh CAPN14 (11732068_a_at) / RFU TMCC2 (11721928_a_at) / Fold change /veh TMCC2 (11721928_a_at) / RFU IRGQ (11745062_a_at) / Fold change /veh IRGQ (11745062_a_at) / RFU FAM174B (11720279_a_at) / Fold change /veh FAM174B (11720279_a_at) / RFU TMPRSS4 (11748680_a_at) / Fold change /veh TMPRSS4 (11748680_a_at) / RFU FAM212B (11763350_a_at) / Fold change /veh FAM212B (11763350_a_at) / RFU PLEKHG5 (11743358_a_at) / Fold change /veh PLEKHG5 (11743358_a_at) / RFU ZSCAN30 (11745921_a_at) / Fold change /veh ZSCAN30 (11745921_a_at) / RFU CMKLR1 (11741424_a_at) / Fold change /veh CMKLR1 (11741424_a_at) / RFU LOC101060620 /// MAPK8IP1 (11723275_at) / Fold change /veh LOC101060620 /// MAPK8IP1 (11723275_at) / RFU SPTSSB (11747773_x_at) / Fold change /veh SPTSSB (11747773_x_at) / RFU PRSS12 (11739890_at) / Fold change /veh PRSS12 (11739890_at) / RFU BIN1 (11741810_x_at) / Fold change /veh BIN1 (11741810_x_at) / RFU WNT11 (11732464_a_at) / Fold change /veh WNT11 (11732464_a_at) / RFU C10orf10 (11716521_a_at) / Fold change /veh C10orf10 (11716521_a_at) / RFU C5orf56 (11738089_at) / Fold change /veh C5orf56 (11738089_at) / RFU CYB561 (11721691_x_at) / Fold change /veh CYB561 (11721691_x_at) / RFU ANKRD19P (11752326_a_at) / Fold change /veh ANKRD19P (11752326_a_at) / RFU OR2T12 /// OR2T33 /// OR2T8 (11738714_s_at) / Fold change /veh OR2T12 /// OR2T33 /// OR2T8 (11738714_s_at) / RFU VCAN (11748164_a_at) / Fold change /veh VCAN (11748164_a_at) / RFU JSRP1 (11732532_at) / Fold change /veh JSRP1 (11732532_at) / RFU KRTAP10-11 (11738290_x_at) / Fold change /veh KRTAP10-11 (11738290_x_at) / RFU MYO3A (11730013_a_at) / Fold change /veh MYO3A (11730013_a_at) / RFU EBF3 (11725865_a_at) / Fold change /veh EBF3 (11725865_a_at) / RFU CAMK2N1 (11719241_x_at) / Fold change /veh CAMK2N1 (11719241_x_at) / RFU C5orf56 (11738088_a_at) / Fold change /veh C5orf56 (11738088_a_at) / RFU OLFML3 (11715873_a_at) / Fold change /veh OLFML3 (11715873_a_at) / RFU LOC100653217 /// NTM (11731650_a_at) / Fold change /veh LOC100653217 /// NTM (11731650_a_at) / RFU MAPK11 (11762145_a_at) / Fold change /veh MAPK11 (11762145_a_at) / RFU FIZ1 (11724087_x_at) / Fold change /veh FIZ1 (11724087_x_at) / RFU OASL (11726364_x_at) / Fold change /veh OASL (11726364_x_at) / RFU SOX15 (11748057_x_at) / Fold change /veh SOX15 (11748057_x_at) / RFU CD79A (11719716_a_at) / Fold change /veh CD79A (11719716_a_at) / RFU HIST1H1D (11736915_at) / Fold change /veh HIST1H1D (11736915_at) / RFU CASKIN2 (11723855_a_at) / Fold change /veh CASKIN2 (11723855_a_at) / RFU LOC730098 (11760151_x_at) / Fold change /veh LOC730098 (11760151_x_at) / RFU OR4N2 (11742367_at) / Fold change /veh OR4N2 (11742367_at) / RFU PRRT2 (11749266_a_at) / Fold change /veh PRRT2 (11749266_a_at) / RFU SNX32 (11753110_a_at) / Fold change /veh SNX32 (11753110_a_at) / RFU CDHR5 (11726645_a_at) / Fold change /veh CDHR5 (11726645_a_at) / RFU RCAN1 (11760418_a_at) / Fold change /veh RCAN1 (11760418_a_at) / RFU FAM167A (11723789_a_at) / Fold change /veh FAM167A (11723789_a_at) / RFU FAM26E (11764081_at) / Fold change /veh FAM26E (11764081_at) / RFU ISYNA1 (11749810_s_at) / Fold change /veh ISYNA1 (11749810_s_at) / RFU ACY1 (11761880_at) / Fold change /veh ACY1 (11761880_at) / RFU 11764098_at / Fold change /veh 11764098_at / RFU SAMD14 (11745864_x_at) / Fold change /veh SAMD14 (11745864_x_at) / RFU NPB (11741838_a_at) / Fold change /veh NPB (11741838_a_at) / RFU TMPRSS6 (11731388_a_at) / Fold change /veh TMPRSS6 (11731388_a_at) / RFU KRTAP10-2 (11738614_at) / Fold change /veh KRTAP10-2 (11738614_at) / RFU ARHGAP8 /// PRR5-ARHGAP8 (11727945_x_at) / Fold change /veh ARHGAP8 /// PRR5-ARHGAP8 (11727945_x_at) / RFU KRTAP5-7 /// NADSYN1 (11734609_at) / Fold change /veh KRTAP5-7 /// NADSYN1 (11734609_at) / RFU RASL12 (11751679_a_at) / Fold change /veh RASL12 (11751679_a_at) / RFU CDKN2B (11736163_a_at) / Fold change /veh CDKN2B (11736163_a_at) / RFU PRF1 (11729649_at) / Fold change /veh PRF1 (11729649_at) / RFU, ZNF638 /// ZNF638-IT1 / Fold change vs veh, ZNF638 /// ZNF638-IT1 / RFU, PANK3 / Fold change vs veh, PANK3 / RFU, SH3YL1 / Fold change vs veh, SH3YL1 / RFU, ZEB2 / Fold change vs veh, ZEB2 / RFU, NRIP1 / Fold change vs veh, NRIP1 / RFU, PTTG1IP / Fold change vs veh, PTTG1IP / RFU, CAPN2 / Fold change vs veh, CAPN2 / RFU, MED14 / Fold change vs veh, MED14 / RFU, SNORA58 / Fold change vs veh, SNORA58 / RFU, C1orf63 / Fold change vs veh, C1orf63 / RFU, LRRFIP1 / Fold change vs veh, LRRFIP1 / RFU, NDUFAF7 / Fold change vs veh, NDUFAF7 / RFU, SLC12A2 / Fold change vs veh, SLC12A2 / RFU, IBTK / Fold change vs veh, IBTK / RFU, ESF1 / Fold change vs veh, ESF1 / Fold change vs veh, TMEM50B / RFU, TAOK1 / Fold change vs veh, TAOK1 / RFU, ACBD3 / Fold change vs veh, ACBD3 / RFU, TMA16 / Fold change vs veh, TMA16 / RFU, RWDD3 / Fold change vs veh, RWDD3 / RFU, BCAT1 / Fold change vs veh, BCAT1 / RFU, EDEM3 / Fold change vs veh, EDEM3 / RFU, TMEM33 / Fold change vs veh, TMEM33 / RFU, WDR75 / Fold change vs veh, WDR75 / RFU, AHCTF1 / Fold change vs veh, AHCTF1 / RFU, TFRC / Fold change vs veh, TFRC / RFU, ZDHHC17 / Fold change vs veh, ZDHHC17 / RFU, NOM1 / Fold change vs veh, NOM1 / RFU, ARL8B / Fold change vs veh, ARL8B / RFU, ZBTB11 / Fold change vs veh, ZBTB11 / RFU, TAMM41 / Fold change vs veh, TAMM41 / RFU, KIAA1704 /// LOC100996395 / Fold change vs veh, KIAA1704 /// LOC100996395 / RFU, ING1 / Fold change vs veh, ING1 / RFU, TRMT61B / Fold change vs veh, TRMT61B / RFU, FUBP3 / Fold change vs veh, FUBP3 / RFU, TP53 / Fold change vs veh, TP53 / RFU, TNKS2 / Fold change vs veh, TNKS2 / RFU, ZFP14 / Fold change vs veh, ZFP14 / RFU, ACTR2 / Fold change vs veh, ACTR2 / RFU, PPP3R1 / Fold change vs veh, PPP3R1 / RFU, PIK3R1 / Fold change vs veh, PIK3R1 / RFU, HNRNPA1 / Fold change vs veh, HNRNPA1 / RFU, RNF170 / Fold change vs veh, RNF170 / RFU, ZNF28 / Fold change vs veh, ZNF28 / RFU, RNGTT / Fold change vs veh, RNGTT / RFU, OGT / Fold change vs veh, OGT / RFU, BRD1 / Fold change vs veh, BRD1 / RFU, MARS / Fold change vs veh, MARS / RFU, ZNF655 / Fold change vs veh, ZNF655 / RFU, FAHD1 / Fold change vs veh, FAHD1 / RFU, BDP1 / Fold change vs veh, BDP1 / RFU, LRRCC1 / Fold change vs veh, LRRCC1 / RFU, ARID1A / Fold change vs veh, ARID1A / RFU, ZNF146 / Fold change vs veh, ZNF146 / RFU, ZNF330 / Fold change vs veh, ZNF330 / RFU, GPN3 / Fold change vs veh, GPN3 / RFU, C9orf123 / Fold change vs veh, C9orf123 / RFU, N4BP2L2 / Fold change vs veh, N4BP2L2 / RFU, ARFIP1 / Fold change vs veh, ARFIP1 / RFU, FAM179B / Fold change vs veh, FAM179B / RFU, BCL10 / Fold change vs veh, BCL10 / RFU, UHRF1BP1L / Fold change vs veh, UHRF1BP1L / RFU, BET1 / Fold change vs veh, BET1 / RFU, CNOT2 / Fold change vs veh, CNOT2 / RFU, ZNF268 / Fold change vs veh, ZNF268 / Fold change vs veh, ZNF507 / RFU, DGCR2 / Fold change vs veh, DGCR2 / RFU, WDSUB1 / Fold change vs veh, WDSUB1 / Fold change vs veh, HSP90B1 /// MIR3652 / RFU, ADSS / Fold change vs veh, ADSS / RFU, GK / Fold change vs veh, GK / RFU, ZNF148 / Fold change vs veh, ZNF148 / RFU, TAF9 / Fold change vs veh, TAF9 / RFU, SLC1A5 / Fold change vs veh, SLC1A5 / RFU, SLMO2 / Fold change vs veh, SLMO2 / RFU, ABCC4 / Fold change vs veh, ABCC4 / RFU, LOC101060439 /// RAP1B / Fold change vs veh, LOC101060439 /// RAP1B / RFU, RFX7 / Fold change vs veh, RFX7 / RFU, GTPBP10 / Fold change vs veh, GTPBP10 / RFU, CNEP1R1 / Fold change vs veh, CNEP1R1 / RFU, BIVM-ERCC5 /// ERCC5 / Fold change vs veh, BIVM-ERCC5 /// ERCC5 / RFU, ILF3 / Fold change vs veh, ILF3 / RFU 11762660_at / Fold change /veh 11762660_at / RFU VCAN (11757783_s_at) / Fold change /veh VCAN (11757783_s_at) / RFU DDX43 (11728927_at) / Fold change /veh DDX43 (11728927_at) / RFU KRT8 (11758188_x_at) / Fold change /veh KRT8 (11758188_x_at) / RFU NKD1 (11759106_at) / Fold change /veh NKD1 (11759106_at) / RFU SRD5A1 (11742802_a_at) / Fold change /veh SRD5A1 (11742802_a_at) / RFU TPSAB1 /// TPSB2 (11721975_s_at) / Fold change /veh TPSAB1 /// TPSB2 (11721975_s_at) / RFU GSTM3 (11746129_a_at) / Fold change /veh GSTM3 (11746129_a_at) / RFU IL23R (11737362_x_at) / Fold change /veh IL23R (11737362_x_at) / RFU TMEM51 (11727254_a_at) / Fold change /veh TMEM51 (11727254_a_at) / RFU PIWIL2 (11732686_x_at) / Fold change /veh PIWIL2 (11732686_x_at) / RFU ORM1 (11744905_x_at) / Fold change /veh ORM1 (11744905_x_at) / RFU CCDC152 (11743942_at) / Fold change /veh CCDC152 (11743942_at) / RFU ECM1 (11717891_a_at) / Fold change /veh ECM1 (11717891_a_at) / RFU IL23R (11748794_a_at) / Fold change /veh IL23R (11748794_a_at) / RFU TNFAIP8L3 (11732012_x_at) / Fold change /veh TNFAIP8L3 (11732012_x_at) / RFU MBOAT4 (11741988_at) / Fold change /veh MBOAT4 (11741988_at) / RFU 11764193_at / Fold change /veh 11764193_at / RFU TMEM53 (11763286_at) / Fold change /veh TMEM53 (11763286_at) / RFU MAGEB2 (11727129_at) / Fold change /veh MAGEB2 (11727129_at) / RFU TMEM200A (11744735_a_at) / Fold change /veh TMEM200A (11744735_a_at) / RFU CCDC152 (11751479_a_at) / Fold change /veh CCDC152 (11751479_a_at) / RFU FAM211A (11726209_a_at) / Fold change /veh FAM211A (11726209_a_at) / RFU RGS16 (11746705_a_at) / Fold change /veh RGS16 (11746705_a_at) / RFU VCAN (11755009_s_at) / Fold change /veh VCAN (11755009_s_at) / RFU RHOB (11743442_s_at) / Fold change /veh RHOB (11743442_s_at) / RFU RGS16 (11720943_a_at) / Fold change /veh RGS16 (11720943_a_at) / RFU RGS16 (11720944_at) / Fold change /veh RGS16 (11720944_at) / RFU, VPS4B / Fold change vs veh, VPS4B / RFU, CREB1 / Fold change vs veh, CREB1 / RFU, DNAJC13 / Fold change vs veh, DNAJC13 / RFU, GNAQ / Fold change vs veh, GNAQ / RFU, CDK5R1 / Fold change vs veh, CDK5R1 / RFU, ZRANB3 / Fold change vs veh, ZRANB3 / RFU, CUL4A / Fold change vs veh, CUL4A / RFU, CCNY / Fold change vs veh, CCNY / RFU, UFL1 / Fold change vs veh, UFL1 / RFU, COG3 / Fold change vs veh, COG3 / RFU, DIAPH2 / Fold change vs veh, DIAPH2 / RFU, SKA2 / Fold change vs veh, SKA2 / RFU, AFF3 / Fold change vs veh, AFF3 / RFU, LMF1 / Fold change vs veh, LMF1 / RFU, IPO11 / Fold change vs veh, IPO11 / RFU, DFFB / Fold change vs veh, DFFB / RFU, FOXP1 / Fold change vs veh, FOXP1 / RFU, CARD8 / Fold change vs veh, CARD8 / RFU, STRN3 / Fold change vs veh, STRN3 / RFU, ADK / Fold change vs veh, ADK / RFU, RASSF2 / Fold change vs veh, RASSF2 / RFU, WIPF1 / Fold change vs veh, WIPF1 / RFU, LARP1B / Fold change vs veh, LARP1B / RFU, RASA1 / Fold change vs veh, RASA1 / RFU, RB1 / Fold change vs veh, RB1 / RFU, PPFIA1 / Fold change vs veh, PPFIA1 / RFU, MAT2A / Fold change vs veh, MAT2A / RFU, CCT5 / Fold change vs veh, CCT5 / RFU, WDR92 / Fold change vs veh, WDR92 / RFU, CUX1 / Fold change vs veh, CUX1 / RFU, TTC7A / Fold change vs veh, TTC7A / RFU, TMEM135 / Fold change vs veh, TMEM135 / RFU, DEPTOR / Fold change vs veh, DEPTOR / RFU, CPM / Fold change vs veh, CPM / RFU, DNAJB6 / Fold change vs veh, DNAJB6 / RFU, CACNA2D3 / Fold change vs veh, CACNA2D3 / RFU, DTX4 / Fold change vs veh, DTX4 / RFU, TFCP2 / Fold change vs veh, TFCP2 / RFU, GMCL1 /// GMCL1P1 / Fold change vs veh, GMCL1 /// GMCL1P1 / RFU, AEBP2 / Fold change vs veh, AEBP2 / RFU, SNHG1 /// SNORD22 /// SNORD25 /// SNORD26 /// SNORD27 /// SNORD28 /// SNORD29 /// SNORD31 / Fold change vs veh, SNHG1 /// SNORD22 /// SNORD25 /// SNORD26 /// SNORD27 /// SNORD28 /// SNORD29 /// SNORD31 / Fold change (Aza/veh), C12orf56 (ProbeSet 11735607_a_at) / Fold change (ACY-1035/veh), C12orf56 (ProbeSet 11735607_a_at) / Fold change (Aza/veh), FGFR1OP (ProbeSet 11751329_s_at) / Fold change (ACY-1035/veh), FGFR1OP (ProbeSet 11751329_s_at) / Fold change (Aza/veh), VPS36 (ProbeSet 11739960_a_at) / Fold change (ACY-1035/veh), VPS36 (ProbeSet 11739960_a_at) / RFU SYPL1 (11715823_x_at) / Fold change /veh SYPL1 (11715823_x_at) / RFU IGFBP7 (11715501_s_at) / Fold change /veh IGFBP7 (11715501_s_at) / RFU REEP3 (11722064_at) / Fold change /veh REEP3 (11722064_at) / RFU IGLL1 (11728026_x_at) / Fold change /veh IGLL1 (11728026_x_at): dose or concentration left out as unconfirmed
Details: ProbeSet 11718701_a_at; LIST B

Nc1ccc(-c2cccs2)cc1NC(=O)c1ccc2c(c1)cc(C1CC1)n2CCN1CCOCC1 [ACY-1035]
RFU, ARFIP1: 56.28 RFU
